# Source: patent US5527781A, “4-O-(aminoglycosyl)- or 4,6-di-O-(aminoglycosyl)-2,5-dideoxy-5,5-difluorostreptamine derivatives” (Zaidan Hojin Biseibutsu Kagaku Kenkyu Kai, priority 1990, dated 1996)
# Where two headings read alike, the source gives them in different places.
# Key:
# [1] = tested on: Staphylococcus aureus 209P; experiment: MIC, standard serial dilution method; format: cell-based; conditions: Mueller-Hinton agar, 37° C
# [2] = tested on: Pseudomonas aeruginosa A3; experiment: MIC, standard serial dilution method; format: cell-based; conditions: Mueller-Hinton agar, 37° C
# in vivo = conditions: mouse, iv, pH 7
# From the text: Further, in order to estimate acute toxicity of the compound of the general formula (I) according to this invention, some examples of the compounds of this invention were independently dissolved in water to prepare aqueous solutions (as adjusted to pH 7 by addition of hydrochloric acid). […] The tested compounds of this invention are expressed by the same abbreviations as in Table 1. […] The comparative compounds as tested are also expressed by the same abbreviations as in Table 1.
# [3] = tested on: Escherichia coli K-12 LA 290 R55; experiment: microbe, parasite or virus in culture; format: cell-based; conditions: K12LA290R55
# Proteus rettgeri GN 311 = experiment: MIC, standard serial dilution method; format: cell-based; conditions: Providencia rettgeri, GN311; Proteus rettgeri GN 311; Mueller-Hinton agar, 37° C; read-out: MIC
# Mycobacterium 607 = experiment: MIC, standard serial dilution method; format: cell-based; conditions: Mueller-Hinton agar, 37° C
# Escherichia coli JR225 = experiment: microbe, parasite or virus in culture; format: cell-based; conditions: resistance mechanism AAC(3), Mueller-Hinton agar, 37° C
# [4] = tested on: Staphylococcus aureus Ap01; experiment: MIC, standard serial dilution method; format: cell-based; conditions: resistance mechanism ANT(4'), Mueller-Hinton agar, 37° C
# Escherichia coli K-12 = experiment: MIC, standard serial dilution method; format: cell-based; conditions: K12
# [5] = tested on: Escherichia coli K-12 ML 1629; experiment: microbe, parasite or virus in culture; format: cell-based; conditions: K12ML1629
# Serratia marcescens = experiment: MIC, standard serial dilution method; format: cell-based; conditions: Mueller-Hinton agar, 37° C
# [6] = tested on: Escherichia coli JR66/W677; experiment: microbe, parasite or virus in culture; format: cell-based; conditions: resistance mechanism APH(3')-II, ANT(2"), Mueller-Hinton agar, 37° C
# [7] = tested on: Pseudomonas aeruginosa GN 315; experiment: MIC, standard serial dilution method; format: cell-based; conditions: GN315; Pseudomonas aeruginosa GN 315; resistance mechanism AAC(6'); Mueller-Hinton agar, 37° C; read-out: MIC
# [8] = tested on: Klebsiella pneumoniae 22#3038; experiment: MIC, standard serial dilution method; format: cell-based; conditions: resistance mechanism APH(3')-II, ANT(2"), Mueller-Hinton agar, 37° C
# Escherichia coli K-12 R5 = experiment: microbe, parasite or virus in culture; format: cell-based; conditions: K12R5
# Bacillus subtilis PCI219 = experiment: MIC, standard serial dilution method; format: cell-based; conditions: Mueller-Hinton agar, 37° C
# Providencia sp. Pv 16 = experiment: MIC, standard serial dilution method; format: cell-based; conditions: SP.PV16, resistance mechanism AAC(2'), Mueller-Hinton agar, 37° C
# [9] = tested on: Corynebacterium bovis 1810; experiment: MIC, standard serial dilution method; format: cell-based; conditions: Mueller-Hinton agar, 37° C
# [10] = Escherichia coli K-12 LA 290 R55, resistance mechanism ANT(2"), Mueller-Hinton agar, 37° C
# [11] = Escherichia coli K-12, Mueller-Hinton agar, 37° C, read-out: MIC
# [12] = Escherichia coli K-12 ML 1629, resistance mechanism APH(3')-I, Mueller-Hinton agar, 37° C, read-out: MIC
# [13] = Escherichia coli K-12 R5, resistance mechanism AAC(6'), Mueller-Hinton agar, 37° C
smiles,measurement,setting,value
"CN[C@@H]1[C@@H](O)[C@@H](O[C@H]2[C@H](N)C[C@H](N)[C@@H](O[C@H]3O[C@H](CN)CC[C@H]3N)C2(F)F)OC[C@]1(C)O [5FF-Genta-C1a, 5-deoxy-5,5-difluorogentamicin C1a]",MIC,[1],0.78 µg/mL
same,MIC,[2],0.78 µg/mL
same,LD50,in vivo,~240 mg/kg
same,MIC,[3]; [10],3.12 µg/mL
same,MIC,Proteus rettgeri GN 311,0.39 µg/mL
same,MIC,Mycobacterium 607,0.78 µg/mL
same,MIC,Escherichia coli JR225,3.12 µg/mL
same,MIC,[4],3.12 µg/mL
same,MIC,Escherichia coli K-12; [11],< 0.2 µg/mL
same,MIC,[5]; [12],0.39 µg/mL
same,MIC,Serratia marcescens,6.25 µg/mL
same,MIC,[6],1.56 µg/mL
same,MIC,[7],100 µg/mL
same,MIC,[8],1.56 µg/mL
same,MIC,Escherichia coli K-12 R5; [13],12.5 µg/mL
same,MIC,Bacillus subtilis PCI219,0.39 µg/mL
same,MIC,Providencia sp. Pv 16,12.5 µg/mL
same,MIC,[9],0.78 µg/mL
"NC[C@H]1O[C@H](O[C@H]2[C@H](O)[C@@H](O[C@H]3O[C@H](CO)[C@@H](O)[C@H](N)[C@H]3O)[C@H](N)C[C@@H]2N)[C@H](O)[C@@H](O)[C@@H]1O [KMA, kanamycin A, reference compound]",MIC,[1],1.56 µg/mL
same,MIC,[2],6.25 µg/mL
same,MIC,[3]; [10],50 µg/mL
same,MIC,Proteus rettgeri GN 311,0.78 µg/mL
same,MIC,Mycobacterium 607,6.25 µg/mL
same,MIC,Escherichia coli JR225,3.12 µg/mL
same,MIC,[4],25 µg/mL
same,MIC,Escherichia coli K-12; Escherichia coli,0.78 µg/mL
same,MIC,[5]; [12],> 100 µg/mL
same,MIC,Serratia marcescens,12.5 µg/mL
same,MIC,[6],> 100 µg/mL
same,MIC,[7],> 100 µg/mL
same,MIC,[8],> 100 µg/mL
same,MIC,Escherichia coli K-12 R5; [13],> 100 µg/mL
same,MIC,Bacillus subtilis PCI219,0.78 µg/mL
same,MIC,Providencia sp. Pv 16,3.12 µg/mL
same,MIC,[9],12.5 µg/mL
"CN[C@@H]1[C@@H](O)[C@@H](O[C@@H]2[C@@H](O)[C@H](O[C@H]3O[C@H]([C@@H](C)N)CC[C@H]3N)[C@@H](N)C[C@H]2N)OC[C@]1(C)O [Genta-C2, gentamicin C2, reference compound]",MIC,[1],< 0.2 µg/mL
same,MIC,[2],0.39 µg/mL
same,LD50,in vivo,~90 mg/kg
same,MIC,[3]; [10],12.5 µg/mL
same,MIC,Proteus rettgeri GN 311,0.2 µg/mL
same,MIC,Mycobacterium 607,1.56 µg/mL
same,MIC,Escherichia coli JR225,6.25 µg/mL
same,MIC,[4],0.78 µg/mL
same,MIC,Escherichia coli K-12; [11],< 0.2 µg/mL
same,MIC,[5]; [12],0.39 µg/mL
same,MIC,Serratia marcescens,0.78 µg/mL
same,MIC,[6],25 µg/mL
same,MIC,[7],3.12 µg/mL
same,MIC,[8],12.5 µg/mL
same,MIC,Escherichia coli K-12 R5; [13],1.56 µg/mL
same,MIC,Bacillus subtilis PCI219,< 0.2 µg/mL
same,MIC,Providencia sp. Pv 16,6.25 µg/mL
same,MIC,[9],0.39 µg/mL
"NC[C@H]1O[C@H](O[C@@H]2[C@@H](N)C[C@@H](N)[C@H](O[C@H]3O[C@H](CO)[C@@H](O)[C@H](N)[C@H]3O)C2(F)F)[C@H](N)C[C@@H]1O [Compound 5FF-TOB, 5-deoxy-5,5-difluorotobramycin]",MIC,[1],0.39 µg/mL
same,MIC,[2],< 0.2 µg/mL
same,LD50,in vivo,260 mg/kg
same,MIC,[3]; Escherichia coli,0.78 µg/mL
same,MIC,Proteus rettgeri GN 311,< 0.2 µg/mL
same,MIC,Mycobacterium 607,0.39 µg/mL
same,MIC,Escherichia coli JR225,0.39 µg/mL
same,MIC,[4],25 µg/mL
same,MIC,Escherichia coli K-12; [11],0.39 µg/mL
same,MIC,[5]; Escherichia coli,0.78 µg/mL
same,MIC,Serratia marcescens,3.12 µg/mL
same,MIC,[6],1.56 µg/mL
same,MIC,[7],100 µg/mL
same,MIC,[8],0.78 µg/mL
same,MIC,Escherichia coli K-12 R5; [13],25 µg/mL
same,MIC,Bacillus subtilis PCI219,0.39 µg/mL
same,MIC,Providencia sp. Pv 16,12.5 µg/mL
same,MIC,[9],1.56 µg/mL
"CCN[C@@H]1C[C@H](N)[C@@H](O[C@H]2OC(CN)=CC[C@H]2N)[C@H](O)[C@H]1O[C@H]1OC[C@](C)(O)[C@H](NC)[C@H]1O [Netilmicin, netilmicin, reference compound]",MIC,[1],< 0.2 µg/mL
same,MIC,[2],0.39 µg/mL
same,LD50,in vivo,30 mg/kg
same,MIC,[3]; [10],0.39 µg/mL
same,MIC,Proteus rettgeri GN 311,0.39 µg/mL
same,MIC,Mycobacterium 607,1.56 µg/mL
same,MIC,Escherichia coli JR225,12.5 µg/mL
same,MIC,[4],0.78 µg/mL
same,MIC,Escherichia coli K-12; [11],< 0.2 µg/mL
same,MIC,[5]; [12],0.39 µg/mL
same,MIC,Serratia marcescens,6.25 µg/mL
same,MIC,[6],0.39 µg/mL
same,MIC,[7],> 100 µg/mL
same,MIC,[8],0.39 µg/mL
same,MIC,Escherichia coli K-12 R5; [13],50 µg/mL
same,MIC,Bacillus subtilis PCI219,< 0.2 µg/mL
same,MIC,Providencia sp. Pv 16,6.25 µg/mL
same,MIC,[9],1.56 µg/mL
"NCC[C@H](O)C(=O)N[C@@H]1C[C@H](N)[C@@H](O[C@H]2O[C@H](CN)CC[C@H]2N)C(F)(F)[C@H]1O[C@H]1O[C@H](CO)[C@@H](O)[C@H](N)[C@H]1O [Compound 5FF-DKB-AHB, 1-N-[(S)-4-amino-2-hydroxybutyryl]-5,3',4'-trideoxy-5,5-difluorokanamycin B]",MIC,[1],0.39 µg/mL
same,MIC,[2],0.78 µg/mL
same,LD50,in vivo,~200 mg/kg
same,MIC,[3]; [10],< 0.2 µg/mL
same,MIC,Proteus rettgeri GN 311,0.39 µg/mL
same,MIC,Mycobacterium 607,0.78 µg/mL
same,MIC,Escherichia coli JR225,< 0.2 µg/mL
same,MIC,[4],3.12 µg/mL
same,MIC,Escherichia coli K-12; [11],< 0.2 µg/mL
same,MIC,[5]; [12],0.39 µg/mL
same,MIC,Serratia marcescens,1.56 µg/mL
same,MIC,[6],0.39 µg/mL
same,MIC,[7],12.5 µg/mL
same,MIC,[8],0.78 µg/mL
same,MIC,Escherichia coli K-12 R5; [13],3.12 µg/mL
same,MIC,Bacillus subtilis PCI219,0.39 µg/mL
same,MIC,Providencia sp. Pv 16,0.78 µg/mL
same,MIC,[9],< 0.2 µg/mL
"CN[C@@H]1[C@@H](O)[C@@H](O[C@H]2[C@H](NC(=O)[C@@H](O)CCN)C[C@H](N)[C@@H](O[C@H]3O[C@H]([C@@H](C)NC)CC[C@H]3N)C2(F)F)OC[C@]1(C)O [5FF-Genta-C1-AHB, 1-N-[(S)-4-amino-2-hydroxybutyryl]-5-deoxy-5,5-difluorogentamicin C1]",MIC,[1],1.56 µg/mL
same,MIC,[2],6.25 µg/mL
same,MIC,[3]; [10],0.39 µg/mL
same,MIC,Proteus rettgeri GN 311,1.56 µg/mL
same,MIC,Mycobacterium 607,3.12 µg/mL
same,MIC,Escherichia coli JR225,< 0.2 µg/mL
same,MIC,[4],25 µg/mL
same,MIC,Escherichia coli K-12; [11],< 0.2 µg/mL
same,MIC,[5]; [12],1.56 µg/mL
same,MIC,Serratia marcescens,3.12 µg/mL
same,MIC,[6],3.12 µg/mL
same,MIC,[7],100 µg/mL
same,MIC,[8],1.56 µg/mL
same,MIC,Escherichia coli K-12 R5; Escherichia coli,0.78 µg/mL
same,MIC,Bacillus subtilis PCI219,1.56 µg/mL
same,MIC,Providencia sp. Pv 16,6.25 µg/mL
same,MIC,[9],0.78 µg/mL
"CN[C@@H]1[C@@H](O)[C@@H](O[C@H]2[C@H](NC(=O)[C@@H](O)CCN)C[C@H](N)[C@@H](O[C@H]3O[C@H]([C@@H](C)N)CC[C@H]3N)C2(F)F)OC[C@]1(C)O [5FF-Genta-C2-AHB, 1-N-[(S)-4-amino-2-hydroxybutyryl]-5-deoxy-5,5-difluorogentamicin C2]",MIC,[1],0.78 µg/mL
same,MIC,[2],3.12 µg/mL
same,MIC,[3]; [10],0.2 µg/mL
same,MIC,Proteus rettgeri GN 311,0.78 µg/mL
same,MIC,Mycobacterium 607,3.12 µg/mL
same,MIC,Escherichia coli JR225,< 0.2 µg/mL
same,MIC,[4],12.5 µg/mL
same,MIC,Escherichia coli K-12; [11],< 0.2 µg/mL
same,MIC,[5]; [12],0.39 µg/mL
same,MIC,Serratia marcescens,3.12 µg/mL
same,MIC,[6],0.78 µg/mL
same,MIC,[7],100 µg/mL
same,MIC,[8],1.56 µg/mL
same,MIC,Escherichia coli K-12 R5; [13],3.12 µg/mL
same,MIC,Bacillus subtilis PCI219,0.2 µg/mL
same,MIC,Providencia sp. Pv 16,6.25 µg/mL
same,MIC,[9],0.2 µg/mL
